Test results reported in patent publication US8859768B2, “Heteroaryls and uses thereof” (Millennium Pharmaceuticals, Inc., priority 2010, dated 2014).

Target: T1, Human VPS34 (Homo sapiens, UniProt Q8NEB9)
T1 construct: GST (N); host or cells: SF9 insect cells (baculovirus)
Assay: Human VPS34 Enzyme Assay (Adapta TR-FRET)
Type: biochemical
Settings: compound at 1.111 μM; read-out: Average VPS34 % INH @ 1.111 μM
Description: VPS34 (accession number GB:BC033004) was cloned into pDEST20-Thombin as N-terminal GST tagged fusion proteins using the Gateway system (Invitrogen, catalog#11804-013). The sequences were verified before recombinant protein expression using the Baculovirus Expression System with Gateway® Technology.
For expression VPS34 was infected at 1MOI in SF9 cells and harvested 72 hours post infection.
For purification, VPS34 is purified by Glutathione Sepharose 4 Fast Flow (GE Healthcare #17-5132-03) followed by HiTrap Q (GE Healthcare #17-1153-01).
Human VPS34 Enzyme Assay Method
100 nL compounds in DMSO are added to wells of a 384 well microtitre plate (Greiner 780076). At room temperature: 5 ul VPS34 reaction buffer (Invitrogen Assay Buffer Q (diluted 1 in 5 with nanopure water) plus 2 mM DTT and 2 mM MnCl2) containing ATP (20 uM, Promega) and 200 uM PI-PS substrate (Invitrogen PV5122) is added followed immediately by 5 ul VPS34 reaction buffer (as above) containing VPS34 (5 nM, Millennium Protein Sciences Group) and the mixture is incubated with shaking at room temperature for 1 hour. Then 5 ul VPS34 stop-detect mix (as per Invitrogen Adapta Assay kit (PV5009) instructions (contains kinase quench buffer, TR-FRET buffer, Adapta Eu anti-ADP antibody and Alexa Fluor 647 ADP tracer)) is added to quench the reaction. The plates are then incubated for 30 minutes at room temperature with shaking and then read on a BMG PheraStar Plus reader.
3) VPS34 is assayed using Adapta™ Universal Kinase Assay Kit (Invitrogen).

T1 sequence (Q8NEB9 whole entry): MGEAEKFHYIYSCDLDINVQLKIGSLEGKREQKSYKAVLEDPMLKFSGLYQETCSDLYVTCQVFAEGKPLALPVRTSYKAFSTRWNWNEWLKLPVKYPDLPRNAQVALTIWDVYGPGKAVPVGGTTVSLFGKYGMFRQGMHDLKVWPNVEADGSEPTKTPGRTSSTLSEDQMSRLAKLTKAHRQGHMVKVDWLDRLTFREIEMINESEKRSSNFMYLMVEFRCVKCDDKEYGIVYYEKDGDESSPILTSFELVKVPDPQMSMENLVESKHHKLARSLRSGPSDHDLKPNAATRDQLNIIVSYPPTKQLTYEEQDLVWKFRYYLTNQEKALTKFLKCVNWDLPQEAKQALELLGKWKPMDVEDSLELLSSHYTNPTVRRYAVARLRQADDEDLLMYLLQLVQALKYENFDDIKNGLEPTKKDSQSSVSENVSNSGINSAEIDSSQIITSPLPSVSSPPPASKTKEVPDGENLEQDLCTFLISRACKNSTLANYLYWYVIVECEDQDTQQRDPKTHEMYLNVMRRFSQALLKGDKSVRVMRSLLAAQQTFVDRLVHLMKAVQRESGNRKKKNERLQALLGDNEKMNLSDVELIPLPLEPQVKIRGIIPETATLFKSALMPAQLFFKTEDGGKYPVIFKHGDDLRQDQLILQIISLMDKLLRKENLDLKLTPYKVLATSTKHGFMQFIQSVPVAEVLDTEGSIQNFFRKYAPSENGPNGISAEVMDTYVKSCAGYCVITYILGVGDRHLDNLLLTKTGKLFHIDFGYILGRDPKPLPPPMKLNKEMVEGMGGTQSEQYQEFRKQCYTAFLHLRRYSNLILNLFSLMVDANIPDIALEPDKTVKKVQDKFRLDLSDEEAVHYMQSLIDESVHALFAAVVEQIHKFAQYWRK

SMILES	inhibition at 1.111 µM [%]
CC(=O)Nc1cc(-c2cc(-c3nnc[nH]3)c(-c3cc(CN4CCCC4)ccc3Cl)o2)c(C)cn1 [Compound I-36, N-(4-{5-[2-chloro-5-(pyrrolidin-1-ylmethyl)phenyl]-4-(4H-1,2,4-triazol-3-yl)-2-furyl}-5-methylpyridin-2-yl)acetamide]	129
CC(=O)Nc1cc(-c2cc(C(=O)NC3CCC3)c(-c3ccccc3Cl)o2)c(C)cn1 [Compound I-14, 5-(2-acetamido-5-methylpyridin-4-yl)-2-(2-chlorophenyl)-N-cyclobutyl-3-furamide]	88
CC(=O)Nc1cc(-c2cc(-c3nnc[nH]3)c(N3CCCS3(=O)=O)o2)c(C)cn1 [Compound I-17, N-{4-[5-(1,1-dioxidoisothiazolidin-2-yl)-4-(4H-1,2,4-triazol-3-yl)-2-furyl]-5-methylpyridin-2-yl}acetamide]	127
O=C(Cn1cccn1)Nc1cc(-c2nc(-c3nnc[nH]3)c(-c3ccccc3Cl)o2)ccn1 [Compound I-37, N-{4-[5-(2-chlorophenyl)-4-(4H-1,2,4-triazol-3-yl)-1,3-oxazol-2-yl]pyridin-2-yl}-2-(1H-pyrazol-1-yl)acetamide]	117
CCNC(=O)c1cc(-c2cc(NC(C)=O)ncc2C)oc1-c1ccccc1Cl [Compound I-81, 5-(2-acetamido-5-methylpyridin-4-yl)-2-(2-chlorophenyl)-N-ethyl-3-furamide]	112
CC(=O)Nc1cc(-c2cc(C(=O)NCCc3cn4ccccc4n3)c(-c3ccccc3Cl)o2)c(C)cn1 [Compound I-41, 5-(2-acetamido-5-methylpyridin-4-yl)-2-(2-chlorophenyl)-N-[2-(imidazo[1,2-a]pyridin-2-yl)ethyl]-3-furamide]	90
CC(=O)Nc1cc(-c2cc(C(C)=O)c(-c3ccccc3Cl)o2)c(C)cn1 [Compound I-27, N-{4-[4-acetyl-5-(2-chlorophenyl)-2-furyl]-5-methylpyridin-2-yl}acetamide]	133
COCCNC(=O)c1nc(-c2cc(NC(C)=O)ncc2C)oc1-c1ccccc1Cl [Compound I-64, 2-(2-acetamido-5-methylpyridin-4-yl)-5-(2-chlorophenyl)-N-(2-methoxyethyl)-1,3-oxazole-4-carboxamide]	64
CC(=O)Nc1cc(-c2nc(-c3ncco3)c(-c3ccccc3Cl)o2)c(C)cn1 [Compound I-10, N-{4-[5′-(2-chlorophenyl)-2,4′-bi-1,3-oxazol-2′-yl]-5-methylpyridin-2-yl}acetamide]	132
CC(=O)Nc1cc(-c2nc(C(=O)NCc3ccco3)c(-c3ccccc3Cl)o2)c(C)cn1 [Compound I-9, 2-(2-acetamido-5-methylpyridin-4-yl)-5-(2-chlorophenyl)-N-(2-furylmethyl)-1,3-oxazole-4-carboxamide]	64
CC(=O)Nc1cc(-c2cc(C(=O)O)c(-c3ccccc3Cl)o2)ccn1 [Compound I-2, 5-[2-(acetylamino)pyridin-4-yl]-2-(2-chlorophenyl)-3-furoic acid]	124
C=CCCC(=O)Nc1cc(-c2nc(-c3nnc[nH]3)c(-c3ccccc3Cl)o2)ccn1 [Compound I-43, N-{4-[5-(2-chlorophenyl)-4-(4H-1,2,4-triazol-3-yl)-1,3-oxazol-2-yl]pyridin-2-yl}pent-4-enamide]	98
Nc1cc(-c2nc(-c3nnc[nH]3)c(-c3ccccc3Cl)o2)ccn1 [Compound I-32, 4-[5-(2-chlorophenyl)-4-(4H-1,2,4-triazol-3-yl)-1,3-oxazol-2-yl]pyridin-2-amine]	26
COCC(=O)Nc1cc(-c2nc(-c3nnc[nH]3)c(-c3ccccc3Cl)o2)ccn1 [Compound I-87, N-{4-[5-(2-chlorophenyl)-4-(4H-1,2,4-triazol-3-yl)-1,3-oxazol-2-yl]pyridin-2-yl}-2-methoxyacetamide]	109
CC(=O)Nc1cc(-c2cc(C(=O)NC[C@@H](C)O)c(-c3ccccc3Cl)o2)c(C)cn1 (stereo in doubt) [Compound I-66, 5-(2-acetamido-5-methylpyridin-4-yl)-2-(2-chlorophenyl)-N-(2-hydroxypropyl)-3-furamide]	131
CC(=O)Nc1cc(-c2nc(C(=O)N(C)C)c(-c3ccccc3Cl)o2)c(C)cn1 [Compound I-73, 2-(2-acetamido-5-methylpyridin-4-yl)-5-(2-chlorophenyl)-N,N-dimethyl-1,3-oxazole-4-carboxamide]	115

SMILES	inhibition at 1.111 µM [%]
COC(CNC(=O)c1cc(-c2cc(NC(C)=O)ncc2C)oc1-c1ccccc1Cl)OC [Compound I-22, 5-(2-acetamido-5-methylpyridin-4-yl)-2-(2-chlorophenyl)-N-(2,2-dimethoxyethyl)-3-furamide]	110
CC(=O)Nc1cc(-c2nc(-c3cc(CN(C)C)ccc3Cl)c(-c3nnc[nH]3)o2)c(C)cn1 [Compound I-40, N-{4-[4-{2-chloro-5-[(dimethylamino)methyl]phenyl}-5-(4H-1,2,4-triazol-3-yl)-1,3-oxazol-2-yl]-5-methylpyridin-2-yl}acetamide]	115
CC(=O)Nc1cc(-c2nc(C(=O)NCCc3cn4ccccc4n3)c(-c3ccccc3Cl)o2)c(C)cn1 [Compound I-82, 2-(2-acetamido-5-methylpyridin-4-yl)-5-(2-chlorophenyl)-N-[2-(imidazo[1,2-a]pyridin-2-yl)ethyl]-1,3-oxazole-4-carboxamide]	68
O=C(Cc1ccc(O)cc1)Nc1cc(-c2nc(-c3nnc[nH]3)c(-c3ccccc3Cl)o2)ccn1 [Compound I-58, N-{4-[5-(2-chlorophenyl)-4-(4H-1,2,4-triazol-3-yl)-1,3-oxazol-2-yl]pyridin-2-yl}-2-(4-hydroxyphenyl)acetamide]	94
Cc1cnc(NC(=O)C2CC2)cc1-c1nc(-c2nnc[nH]2)c(-c2ccccc2Cl)o1 [Compound I-77, N-{4-[5-(2-chlorophenyl)-4-(4H-1,2,4-triazol-3-yl)-1,3-oxazol-2-yl]-5-methylpyridin-2-yl}cyclopropanecarboxamide]	120
CNC(=O)c1cc(-c2cc(NC(C)=O)ncc2C)oc1-c1ccccc1Cl [Compound I-54, 5-(2-acetamido-5-methylpyridin-4-yl)-2-(2-chlorophenyl)-N-methyl-3-furamide]	152
CC(=O)Nc1cc(-c2cc(-c3cc[nH]n3)c(-c3ccccc3Cl)o2)c(C)cn1 [Compound I-48, N-{4-[5-(2-chlorophenyl)-4-(1H-pyrazol-3-yl)-2-furyl]-5-methylpyridin-2-yl}acetamide]	130
CC(=O)Nc1cc(-c2cc(-c3nnc[nH]3)c(-c3cc(CN(C)C)ccc3Cl)o2)c(C)cn1 [Compound I-7, N-{4-[5-{2-chloro-5-[(dimethylamino)methyl]phenyl}-4-(4H-1,2,4-triazol-3-yl)-2-furyl]-5-methylpyridin-2-yl}acetamide]	147
CC(=O)Nc1cc(-c2cc(C(=O)NC(C)C)c(-c3ccccc3Cl)o2)c(C)cn1 [Compound I-72, 5-(2-acetamido-5-methylpyridin-4-yl)-2-(2-chlorophenyl)-N-isopropyl-3-furamide]	78
CC(=O)Nc1cc(-c2cc(-c3ncco3)c(-c3ccccc3Cl)o2)c(C)cn1 [Compound I-69, N-{4-[5-(2-chlorophenyl)-4-(1,3-oxazol-2-yl)-2-furyl]-5-methylpyridin-2-yl}acetamide]	144
CC(=O)Nc1cc(-c2nc(-c3cc(CN4CCCC4)ccc3Cl)c(C(=O)O)o2)c(C)cn1 [Compound I-51, 2-(2-acetamido-5-methylpyridin-4-yl)-4-[2-chloro-5-(pyrrolidin-1-ylmethyl)phenyl]-1,3-oxazole-5-carboxylic acid]	131
CC(=O)Nc1cc(-c2cc(C(=O)NCc3ccccn3)c(-c3ccccc3Cl)o2)c(C)cn1 [Compound I-44, 5-(2-acetamido-5-methylpyridin-4-yl)-2-(2-chlorophenyl)-N-(pyridin-2-ylmethyl)-3-furamide]	150
CC(=O)Nc1cc(-c2nc(-c3nccs3)c(-c3ccccc3Cl)o2)c(C)cn1 [Compound I-60, N-{4-[5-(2-chlorophenyl)-4-(1,3-thiazol-2-yl)-1,3-oxazol-2-yl]-5-methylpyridin-2-yl}acetamide]	122
CC(=O)Nc1cc(-c2nc(C(=O)NCCCCO)c(-c3ccccc3Cl)o2)c(C)cn1 [Compound I-13, 2-(2-acetamido-5-methylpyridin-4-yl)-5-(2-chlorophenyl)-N-(4-hydroxybutyl)-1,3-oxazole-4-carboxamide]	95
Clc1ccccc1-c1oc(-c2ccncc2)nc1-c1nnc[nH]1 [Compound I-49, 4-[5-(2-chlorophenyl)-4-(4H-1,2,4-triazol-3-yl)-1,3-oxazol-2-yl]pyridine]	19
CCNC(=O)c1nc(-c2cc(NC(C)=O)ncc2C)oc1-c1ccccc1Cl [Compound I-59, 2-(2-acetamido-5-methylpyridin-4-yl)-5-(2-chlorophenyl)-N-ethyl-1,3-oxazole-4-carboxamide]	101
